Assays:
[1] = system: PanIN and PDA tumor growth in KIC mice; experiment: Two week in vivo assay in Rgs16::GFP;KIC mice, Rgs16::GFP intensity at P29; parameters: species or system mouse; settings: for effect on GFP levels when combined with GA: drug dissolved in 30% Cyclodextrin
From the text: Fluorescent microscopy and GFP quantification. Pancreatic expression of Rgs16::GFP in GFP-PDA mice was quantified using a Zeiss Lumar microscope. Images were captured using a single-channel camera (Hamamatsu) in 1344×1024 resolution with 1 sec exposure under 48× magnification with 1×1 binning, analog gain=10, and analog offset=2 settings. Pancreatic fields representing the tumor burden (3-4 fields for P15 pups and 5 or more for pups from P23 onwards) of the pancreas were imaged covering up to 50% of the organ surface area. All images were saved in gray-scale 16-bit tiff format. Images were quantified using NIH ImageJ software with background subtraction with a radius of 50 pixels. A variable and tight threshold was set to eliminate residual background. Intensities of all particles with size ≥5 pixels were summed to obtain the total light intensity per image.
Drug dosages. GFP-PDA mice were injected intraperitoneally with gemcitabine (Eli Lilly; Indianapolis, Ind., USA) (12.5 mg/kg/day given 3 days/week, dissolved in PBS), Abraxane (Cellgene; Summit, N.J., USA) (5 mg/kg/day given 2 days/week, diluted in 2% saline solution), BGB324 (BerGenBio, Bergen, Norway) (5 mg/kg/day given 5 days/week, dissolved in a mix of DMSO:ethanol:Kolliphor EL:water with 4:4:8:84 v/v ratio), and warfarin (0.2 mg/kg/day given 5 days/week, dissolved in PBS) according to injection schedules specified below. These doses were validated in prior mouse studies (Dineen et al., 2010; Kutluk Cenik et al., 2013; Ostapoff et al., 2013; Aguilera et al., 2014; Ostapoff et al., 2014). […] To verify tumor progression remains constant over the duration of these experiments, assays of untreated mice were interspersed with drug-treated cohorts, and warfarin-treated pups were the final cohort the inventors tested. Gemcitabine, Abraxane and warfarin were purchased from the UT Southwestern clinical pharmacy; BGB324 was a gift from BerGenBio.
Statistical analysis of GFP expression. GFP values were converted to log10 scale prior to statistical analysis. Graphs and their statistical comparisons were done using Graphpad Prism software with unpaired and two-tailed Student's t test. Significance between groups was indicated as ns (not significant); *p<0.05; **p<0.01; ***p<0.001; ****p<0.0001. Error bars in all the graphs are standard error mean (SEM). See FIGS. 7-8 for additional statistical analysis.
The therapeutic screening strategy was to treat KIC pups between P15-P28 (when PanIN and PDA are in rapid expansion) with anticancer drugs, sacrifice mice at P29, and capture Rgs16::GFP intensity with a dissection fluorescence microscope. Images of the five brightest non-overlapping fields of Rgs16::GFP expression were then collected, representing the regions of greatest tumor burden (FIGS. 17A-C).

primary PDA cells = experiment: Rgs16::GFP PDA primary cell culture, live cell counts after 24 hr drug treatment; type: cell-based, mouse; settings: for effect on cell viability and proliferation: 24 hr, gemcitabine 10 μM, BGB324 or warfarin 1 or 10 μM; for recovery of cell growth after drug removal: passages without drug after 24 hr treatment
Procedure: Cell proliferation counts of primary PDA culture after 24 hr treatment with (FIG. 20A) gemcitabine (purple round); (FIG. 20B) BGB324 (green round); (FIG. 20C) warfarin (blue round); or (FIG. 20D) BGB324 with warfarin (green or blue round) at the indicated concentrations. PDA primary cells were plated at equal density (black open circle) at the start. Next day, cells were treated with drugs (D, red font) for 24 hr (red line). Approximate cell number at the start of drug treatment was obtained from another plate with equal density (red open circle). At the end of treatment, cells in each group were counted and subsequent passages started with cells plated at equal density (grey asterisk). Drug treated groups were allowed to grow without drug selection thereafter. Control cells (Ctrl) on separate plates were grown without drug and counted at the end of each passage (black open circle). PDA live cell numbers were obtained via counts using a hemocytometer after 2% Trypan blue staining to distinguish between living and dead cells under an inverted microscope with 10× objective. Statistical significances are based on comparison of drug-treated cell counts to Ctrl. […] Statistical analyses were obtained by comparing counts of drug-treated cells to Ctrl via unpaired and two-tailed Student's t-test. *, p<0.05; **, p<0.01; ***, p<0.001; ****, p<0.0001. Asterisks match the color of the comparison group.
Rgs16::GFP PDA primary cell culture. Primary Rgs16::GFP PDA cells were harvested from 6-week-old KIC mice. Cells were grown in 25 mM Glucose DMEM (HyClone) with 10% FBS (Serum Source International), penicillin and streptomycin (Life Technologies) on rat tail collagen typel (BD Biosciences) coated plates (0.5 μg/cm^2) in a humidified incubator at 37° C. and 5% CO2. Cells reaching confluency were washed twice with PBS (HyClone) and lifted with 0.05% Trypsin-EDTA (HyClone) treatment up to 10 min in the incubator. For drug tests in FIGS. 20A-D, primary PDA cells were incubated with gemcitabine (10 μM dissolved in PBS), warfarin (1 μM or 10 μM dissolved in water), BGB324 (1 μM or 10 μM dissolved in DMSO) or warfarin and BGB324 together for 24 hrs in 37° C. incubator. PDA live cell numbers were obtained via counts using a hemocytometer following 2% trypan blue staining to distinguish dead cells under an inverted microscope.

Axl = target: T1, Axl (Homo sapiens, UniProt P30530); experiment: Phosphorylated Axl in Panc-1 cells (western blot, immunofluorescence); type: cell-based; settings: overnight, 1% serum, 2 μM
T1 construct: Lysates were probed for total Axl (tAxl) and phosphorylated Axl (pAxl); endogenous in cells; host or cells: Panc-1
Procedure: (FIG. 24A) HEK293 cells engineered to stably express recombinant Gas6 were grown in the presence of Vitamin K or Vitamin K+warfarin. Gas6 levels and γ-carboxylation were assayed by immunoblotting conditioned media. Conditioned media from untransfected HEK293 cells was used as a negative control. (FIG. 24B) Panc1 cells were grown overnight in media with 1% serum with no additions (NT), warfarin (2 μM) or BGB324 (2 μM). Lysates were probed for total Axl (tAxl) and phosphorylated Axl (pAxl). (FIG. 24C) Panc1 cells were grown in the presence of control media, Vitamin K, warfarin or warfarin+Vitamin K. The level of phosphorylated Axl (pAXL, red) was determined by immunofluorescence. (FIG. 24D) Panc1 cells were grown overnight in media with 1% serum with no additions (control), warfarin (1 μM), Gas6 (1.3 nM) or Gas6+warfarin. Lysates were probed for phosphorylated Akt (pAkt) and actin. (FIG. 24E) Lysates from Panc1 tumors harvested from mice treated with control or warfarin were probed for expression of tAxl, pAxl, actin, pAKT, tAKT, and cleaved Parp. (FIG. 24F) The effect of warfarin on cell migration was assessed by a ‘scratch’ assay. Monolayers of the indicted cells were wounded with a pipet tip. The cells were incubated in media containing 2% serum+/−warfarin (2 μM) or media containing 2% serum+Gas6 (1.3 nM)+/−warfarin.

Pan02 = experiment: MTS cell growth assay, gemcitabine +/- warfarin; type: cell-based, murine; settings: Mus musculus, Pan02, 120 h, gemcitabine alone, 5 days, read-out: Gemcitabine (nmol/L) median IC50
Procedure: (§1) Cytotoxicity and augmentation of chemotherapy response was measured by MTS assays conducted in 96-well plates; cells were plated on day 0 and drug was added on day 1 in 4-fold dilutions. Maximum concentration of 2,000 nmol/L for gemcitabine was used with or without the addition of a constant concentration of 2 μM warfarin or 1.1 μM 10C9. Relative cell number was determined by adding MTS (Promega; final concentration […]), incubating for 1 to 3 hours at 37° C., and reading absorbance. Drug sensitivity curves and IC50s were calculated using in-house software.

ASPC = experiment: MTS cell growth assay, gemcitabine +/- warfarin; type: cell-based, human; settings: Homo sapiens, 120 h; gemcitabine alone; 5 days, MTS; read-out: Gemcitabine (nmol/L) median IC50
Procedure: as §1

Panc1 = experiment: MTS cell growth assay, gemcitabine +/- warfarin; type: cell-based, human; settings: Homo sapiens, PANC-1, 120 h; gemcitabine alone; 5 days, MTS; read-out: Gemcitabine (nmol/L) median IC50
Procedure: as §1

Capan = experiment: MTS cell growth assay, gemcitabine +/- warfarin; type: cell-based; settings: Homo sapiens, 120 h, gemcitabine alone, 5 days, read-out: Gemcitabine (nmol/L) median IC50
Procedure: as §1

MiaPaca = experiment: MTS cell growth assay, gemcitabine +/- warfarin; type: cell-based; settings: Homo sapiens, MIA PaCa-2, 120 h, gemcitabine alone, 5 days, read-out: Gemcitabine (nmol/L) median IC50
Procedure: as §1

MiaShAxl = experiment: MTS cell growth assay, gemcitabine +/- warfarin; type: cell-based; settings: Homo sapiens, 120 h, gemcitabine alone, 5 days, read-out: Gemcitabine (nmol/L) median IC50
Procedure: as §1

[2] = Body weight of KIC weanling mice under chemotherapy; type: in vivo, mouse; settings: P29
From the text: FIG. 19. […] Comparison of body weight of female (round) and male (square) non-KIC control (Ctrl, grey), and KIC untreated (Unt, black) or chemotherapy-treated KIC groups are shown. […] Significances are based on comparison of any KIC group to Ctrl via unpaired and two-tailed Student's t-test. ****, p<0.0001.

advanced PDA = settings: patients; cited from earlier work
advanced ovarian cancer = settings: gemcitabine with carboplatin; cited from earlier work
[3] = target: vitamin K epoxide reductase (Homo sapiens, UniProt Q9BQB6); settings: cited from earlier work
Chain of vitamin K epoxide reductase (Q9BQB6 whole entry): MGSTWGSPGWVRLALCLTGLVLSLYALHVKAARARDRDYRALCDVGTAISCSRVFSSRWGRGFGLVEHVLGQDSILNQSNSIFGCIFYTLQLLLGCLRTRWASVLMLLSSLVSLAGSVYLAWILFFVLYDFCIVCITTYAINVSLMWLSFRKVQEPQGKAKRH

T1 sequence (P30530 26-894): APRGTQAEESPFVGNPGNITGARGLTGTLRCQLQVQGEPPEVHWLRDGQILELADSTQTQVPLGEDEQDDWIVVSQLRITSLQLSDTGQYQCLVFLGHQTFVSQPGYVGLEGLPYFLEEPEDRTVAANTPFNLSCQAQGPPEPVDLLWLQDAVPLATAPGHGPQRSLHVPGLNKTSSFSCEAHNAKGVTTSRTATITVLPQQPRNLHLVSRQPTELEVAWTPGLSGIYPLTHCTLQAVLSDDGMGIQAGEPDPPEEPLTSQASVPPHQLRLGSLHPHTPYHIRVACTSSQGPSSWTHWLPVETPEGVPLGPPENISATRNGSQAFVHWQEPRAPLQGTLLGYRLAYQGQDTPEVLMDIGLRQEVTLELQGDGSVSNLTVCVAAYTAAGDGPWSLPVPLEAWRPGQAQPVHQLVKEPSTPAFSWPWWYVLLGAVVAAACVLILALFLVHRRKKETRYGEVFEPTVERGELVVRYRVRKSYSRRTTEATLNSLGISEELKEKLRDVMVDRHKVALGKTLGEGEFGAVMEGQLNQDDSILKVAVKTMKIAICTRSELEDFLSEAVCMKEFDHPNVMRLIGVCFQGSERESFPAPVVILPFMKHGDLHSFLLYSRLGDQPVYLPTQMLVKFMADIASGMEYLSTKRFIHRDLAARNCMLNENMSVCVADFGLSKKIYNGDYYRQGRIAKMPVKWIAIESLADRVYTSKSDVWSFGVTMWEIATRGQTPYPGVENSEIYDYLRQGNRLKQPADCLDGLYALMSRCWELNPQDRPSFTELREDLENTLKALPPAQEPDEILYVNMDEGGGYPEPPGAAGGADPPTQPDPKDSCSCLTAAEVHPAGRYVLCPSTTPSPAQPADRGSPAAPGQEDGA

SMILES: Nc1nc(Nc2ccc3c(c2)CC[C@@H](N2CCCC2)CC3)nn1-c1cc2c(nn1)-c1ccccc1CCC2 [BGB324]
- effect on GFP levels when combined with GA [1]: did not exert an effect
- effect on cell viability and proliferation (primary PDA cells): cytostatic
- recovery of cell growth after drug removal (primary PDA cells): within four passages
- phosphorylation of Axl (pAxl) (Axl): inhibited phosphorylation of Axl

SMILES: Cc1c(CN2CCN(C(=O)[C@H](C)O)CC2)sc2c(N3CCOCC3)nc(-c3cnc(N)nc3)nc12 [GDC980]
- effect on GFP levels when combined with GA [1]: did not exert an effect

SMILES: Nc1ccn([C@@H]2O[C@H](CO)[C@@H](O)C2(F)F)c(=O)n1 [Gemcitabine]
- IC50 (Pan02): 76.5 nmol/L
- IC50 (ASPC): 16 nmol/L
- IC50 (Panc1): 17.1 nmol/L
- IC50 (Capan): 6.87 nmol/L
- IC50 (MiaPaca): 14.5 nmol/L
- IC50 (MiaShAxl): 21 nmol/L
- effect on PanIN lesions and PDA tumor growth (Rgs16::GFP expression) ([1]; KIC mice treated P15-P28, i.p., sacrificed P29): reduction of GFP expression
- effect on cell viability and proliferation (primary PDA cells): killed cells
- recovery of cell growth after drug removal (primary PDA cells): did not recover
- body weight gain / growth of weanling mice [2]: retards body weight gain
- survival (advanced PDA): 6.7 months
- neutropenia (most commonly reported adverse effect) (advanced ovarian cancer): 90 % of patients

SMILES: CC(=O)C[C@@H](c1ccccc1)c1c(O)c2ccccc2oc1=O [S-warfarin]
- potency in producing an anticoagulant response relative to the R-isomer [3]: 2-5 times
